Experimental data reported in patent US5972952A, “Neuroprotective pharmaceutical composition containing stereoisomers of arylcyclohexylamines” (Le Centre National De La Recherche Scientifique, priority 1996, dated 1999).

Columns and labels:
[1] = system: mixed neuronal and glial neocortical cells; assay: Protection of cultured neuronal cells against glutamate neurotoxicity (LDH release); type: cell-based, Sprague-Dawley rat; settings: Rattus norvegicus, glutamate 500 μM for 5 min, 24 h, 100% = glutamate without test compound, read-out: % OF DEAD; for neurotoxicity, % of glutamate alone at 0.1 µM: test compound 0.1 μM; for neurotoxicity, % of glutamate alone at 1 µM: test compound 1 μM; for neurotoxicity, % of glutamate alone at 5 µM: test compound 5 μM; for neurotoxicity, % of glutamate alone at 10 µM: test compound 10 μM
Procedure: Cultures of mixed neuronal and glial neocortical cells were prepared from 18-day-old Sprague-Dawley rat foetuses (IFFA-Credo, St. Germain l'Arbresle, France). The cerebral hemispheres were rapidly dissected in Hanks' BSS supplemented with glucose (6 g/l), incubated in trypsine-EDTA (5 min at 35° C.), rinsed with calcium/magnesium-free glucosed Hanks' and mechanically dissociated. After centrifugation (10 min, 70 g), the cells were resuspended in the culture medium consisting of 87% Eagle's minimal essential medium (MEM), 10% horse serum and 0.6% glucose (without antibiotics), and plated on poly-d-lysine (10 μg/cm^2) coated coverslips, in 24-well dishes, to a final density of 4×10^5 cells/cm^2 in 400 μl/well. The cultures were maintained for 2-3 weeks at 35° C. in a humidified atmosphere (95% air/5% CO2), one-third of the medium being replaced every 4 days.
After 17-20 days in vitro, the culture medium was replaced with 400 μl of experimental medium (EM supplemented with glucose) containing the test compound for 5 min. at room temperature. This medium was replaced with the experimental medium containing the same concentration of test compound plus glutamate 500 μM for another 5 min. Finally, the cells were rinsed with the experimental medium and incubated for 24 h. The control cultures had received the same number of replacements of medium as the experimental ones, with standard experimental medium. The 100% neurotoxicity level was based on the effect of glutamate 500 μM for 5 min. The protective effect was quantified by estimation of the activity of the lactate dehydrogenase (LDH) released in the medium. Culture supernatant (100 μl) was added to phosphate buffer (875 μl, 125 mM, pH 7.6) containing 0.3 mM pyruvic acid and β-NADH (25 μl, 10 mg/ml). The decrease in absorbance was measured at 340 nm (Lockhart, et al., Brain Res. 630:36-40 (1993)).
Four concentrations of test compounds were used, i.e., 10, 5, 1, and 0.1 μM. The dead-cell population was determined by LDH enzymic activity and the results, presented in Table II, were compared with the 100% mortality based on the 500 μM glutamate treated cells without test compound protection.

PCP receptor = assay: [^3H]TCP binding to the PCP receptor (rat brain minus cerebellum homogenate); settings: inhibition of [^3H]TCP (1 nM) specific binding, 30 min, 25° C., pH 7.7
Procedure: 1-[1-(2-thienyl)-2-methylcyclohexyl]piperidine (TCP) binding to the PCP receptor was performed as previously described. […] The rat brain (minus the cerebellum) was removed and homogenized with an Ultraturax (Ika Werke, Staufen, Germany, maximum setting) in a 50 mM Tris/HCl, pH 7.7 buffer for 20 s at 4° C. The homogenate was then centrifuged at 49,000 g for 20 min. and the pellet was resuspended in the same buffer and the homogenization-centrifugation steps performed a second time. The final pellet was resuspended in 10 volumes of a 50 mM Tris/Hepes, pH 7.7 buffer and used without further purification.
The homogenate (0.5-0.8 mg protein/ml) was incubated with N-[1-(2-thienyl) cyclohexyl]3,4-[^3 H]piperidine ([^3 H]TCP, 1 nM) (Amersham, Arlington Heights, Ill, 48 Ci/mmol) in a 5 mM Tris/Hepes, pH 7.7 buffer in the absence (total binding) and in the presence of the test compounds for 30 min. at 25° C. in a volume of 0.5 ml. […] The filters were rinsed twice with 5 ml of a 50 mM NaCl, Tris HCl 10 mM, pH 7.7 buffer and the radioactivity retained counted in 3.5 ml ACS (Amersham) with an Excel 1410 (LKB) liquid scintillation spectrophotometer. The nonspecific binding was determined in parallel experiments in the presence of 100 μM unlabeled TCP.

Structure (SMILES)	neurotoxicity, % of glutamate alone at 0.1 µM [1] [%]	neurotoxicity, % of glutamate alone at 1 µM [1] [%]	neurotoxicity, % of glutamate alone at 5 µM [1] [%]	neurotoxicity, % of glutamate alone at 10 µM [1] [%]	IC50 (PCP receptor) [nM]
C[C@@H]1CCCC[C@]1(c1ccco1)N1CCCCC1 [(1S,2R)1-[1-(2-Furanyl)-2-methylcyclohexyl]-piperidine]	92.5	83.6	43.3	32.1	5.5 ± 1.9
C[C@@H]1CCCC[C@]1(c1cccs1)N1CCCCC1 [(1S,2R)1-[1-(2-Thienyl)-2-methylcyclohexyl]-piperidine]	90.3	32.9	27.2	29.7	
